Measurements from patent US11980633B2, “Method for treating cancer using a combination of DNA-damaging agents and DNA-PK inhibitors” (Vertex Pharmaceuticals Incorporated, priority 2016, dated 2024).

Tested on: pKAP1 and pH2AX levels in MDA-MB-436 and MDA-MB-468 breast cancer cells
Test: pKAP1 and pH2AX immunoblot, Compound B-2 and doxorubicin in MDA-MB-436 and MDA-MB-468 cells
Assay type: cell-based, human
Conditions: 1 μM Compound B-2 + 500 nM doxorubicin; at 8 h
Protocol: Materials and Methods. The human cancer cell lines A549 (CCL-185), DU4475 (HTB-123), MDA-MB-436 (HTB-130), and MDA-MB-468 (HTB-132) were obtained from American Type Culture Collection (ATCC; Manassas, VA). A 10 mM stock solution of Compound B-1 or Compound B-2 was prepared in DMSO and stored at −20° C. Etoposide and doxorubicin were purchased from Sigma-Aldrich (St. Louis, MO).
The A549 human lung cancer cell line was purchased from ATCC and was cultured in DMEM supplemented with 10% fetal bovine serum, 1× non-essential amino acids and 1× Penicillin/Streptomycin (complete medium). Cells were maintained at a subconfluent state by passaging every 2-3 days. Human breast cancer cells lines DU4475, MDA-MB-436, and MDA-MB-468 were purchased from ATCC and cultured in DMEM supplemented with 10% fetal bovine serum, 1× Glutamax and Penicillin/Streptomycin. Cells were maintained at a subconfluent state by passaging every 2-3 days.
Compound B-1 and Compound B-2 used in these experiments were not prepared as a co-crystals.
Breast cancer cell lines grown in 24-well (Costar, catalog #3526) or 6-well (Costar, catalog #3516) tissue culture plates to 70-80% confluence were pre-incubated with 1 μM Compound B-2 or DMSO for 15 min. Doxorubicin was added to a final concentration of either 100 nM or 500 nM from a 1000× stock prepared in DMSO. Cells were then incubated for the indicated amount of time and harvested for analysis.
Cell Lysis and Western Blot Analysis. […]
To determine that enhancement of DNA damage by concurrent treatment of cells with Compound B-2 and doxorubicin was not specific to DU4475 cells, two additional breast cancer cell lines, MDA-MB-436 and MDA-MB-468, were also pre-incubated with 1 μM Compound B-2 for 15 min, followed by addition of 500 nM doxorubicin. Cells were harvested at various time points following doxorubicin addition and analyzed for levels of pKAP1 and pH2AX by immunoblotting.

`[2H]c1nc(C)nc([2H])c1-c1cc(NC[C@@H](C)c2cccc3c(C(=O)NC)ccnc23)ncn1` [Compound B-2] was tested, and the “pH2AX level, max enhancement vs doxorubicin alone” value was 1.5 fold and the “pKAP1 level, max enhancement vs doxorubicin alone” value was 3.5-4 fold.
